Results on nine molecules are retold here after patent publication US9573913B2, “Cathepsin cysteine protease inhibitors” (Merck Sharp & Dohme Corp., priority 2013, dated 2017).

Where only a bound is given, the exact number is not on record here.

In one test the target is human cathepsin K (UniProt P43236). As to the kind of experiment: Cathepsin K Assay (hrbCat K). It counts as biochemical. Particulars: Z-Leu-Arg-AMC substrate, pH 5.5, 15 min preincubation; read-out: hrbCat K (IP (nM)). Put shortly: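 Human cathepsin K (0.4 nM) was preincubated 15 min at room temperature with compound in 50 mM MES pH 5.5, 2.5 mM EDTA, 2.5 mM DTT and 10% DMSO. Inhibition was fitted to a dose-response model.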

The target of the next test is T1, human cathepsin F (Homo sapiens, UniProt Q9UBX1).
T1 sequence (Q9UBX1 271-484): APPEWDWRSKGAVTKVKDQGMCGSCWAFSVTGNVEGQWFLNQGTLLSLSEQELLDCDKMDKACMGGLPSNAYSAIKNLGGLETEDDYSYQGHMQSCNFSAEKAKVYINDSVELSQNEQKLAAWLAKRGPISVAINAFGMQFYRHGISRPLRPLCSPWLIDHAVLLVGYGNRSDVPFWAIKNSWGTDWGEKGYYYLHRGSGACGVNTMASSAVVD
Briefly: Cathepsin F assay (hCat F). It counts as biochemical. Particulars: Z-Phe-Arg-AMC substrate, pH 5.5, 15 min preincubation; read-out: hCat F (IP (nM)). Put shortly:
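AMC release from Z-Phe-Arg-AMC, added at 8 μM, was monitored fluorometrically (360/460 nm) for 20 min after 10 nM enzyme and compound had been preincubated 15 min at room temperature. Buffer: MES 50 mM pH 5.5, EDTA and DTT 2.5 mM each, 10% DMSO. Compound DMSO dilutions spanned 500–0.025 μM (3-fold). Dose-response fitting gave % inhibition.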

Consider `N#CC1(NC(=O)[C@@H]2CCCC[C@H]2c2nc(-c3cncc(F)c3)sc2-c2ccc(N3CCS(=O)(=O)C4(CC4)C3)cc2)CC1` [Example 74, (1R,2R)-N-(1-cyanocyclopropyl)-2-(5-(4-(4,4-dioxido-4-thia-7-azaspiro[2.5]octan-7-yl)phenyl)-2-(5-fluoropyridin-3-yl)thiazol-4-yl)cyclohexane-carboxamide], for which the IC50 on human cathepsin K was found to be 1.9 nM; at human cathepsin F, 1370 nM.

Consider `CS(=O)(=O)C1CN(c2ccc(-c3sc(-c4cncc(F)c4)nc3[C@@H]3CCCC[C@H]3C(=O)NC3(C#N)CC3)cc2)C1` [Example 75, (1R,2R)-N-(1-cyanocyclopropyl)-2-(2-(5-fluoropyridin-3-yl)-5-(4-(3-(methylsulfonyl)azetidin-1-yl)phenyl)thiazol-4-yl)cyclohexane-carboxamide], for which the figures for the IC50 on human cathepsin K and at human cathepsin F were 1.5 nM and 867 nM, respectively.

Turning to `N#CC1(NC(=O)[C@@H]2CCCC[C@H]2c2nc(-c3cncc(Cl)c3)sc2-c2ccc(N3CCS(=O)(=O)C4(CC4)C3)cc2)CC1` [Example 76, (1R,2R)-2-(2-(5-chloropyridin-3-yl)-5-(4-(4,4-dioxido-4-thia-7-azaspiro[2.5]octan-7-yl)phenyl)thiazol-4-yl)-N-(1-cyanocyclopropyl) cyclohexanecarbox-amide], the results for the IC50 on human cathepsin K and at human cathepsin F were 1.8 nM and 1000 nM, respectively.

`Cc1ncc(-c2nc([C@@H]3CCCC[C@H]3C(=O)NC3(C#N)CC3)c(-c3ccc(N4CCS(=O)(=O)CC4)cc3)s2)cn1` [Example 77, (1R,2R)-N-(1-cyanocyclopropyl)-2-(5-(4-(1,1-dioxidothiomorpho-lino)phenyl)-2-(2-methylpyrimidin-5-yl)thiazol-4-yl)cyclohexane-carboxamide]: the IC50 on human cathepsin K was found to be 1.6 nM; at human cathepsin F, 1870 nM.

For the molecule `N#CC1(NC(=O)[C@@H]2CCC(F)(F)C[C@H]2c2nc(-c3ccc(F)cc3)sc2-c2ccc(N3CCS(=O)(=O)CC3)cc2)CC1` [Example 78, (1R,2R)-N-(1-cyanocyclopropyl)-2-(5-(4-(1,1-dioxidothiomorpho-lino)phenyl)-2-(4-fluorophenyl)thiazol-4-yl)-4,4-difluorocyclohexane-carboxamide], the IC50 worked out at 3.8 nM on human cathepsin K and 3330 nM at human cathepsin F.

Take `N#Cc1ccccc1-c1nc([C@@H]2CCCC[C@H]2C(=O)NC2(C#N)CC2)c(-c2ccc(N3CCS(=O)(=O)CC3)cc2)s1` [Example 79, (1R,2R)-N-(1-cyanocyclopropyl)-2-(2-(2-cyanophenyl)-5-(4-(1,1-dioxidothiomorpho-lino)phenyl)thiazol-4-yl)cyclohexane-carboxamide]: the IC50 amounted to 9.3 nM on human cathepsin K and 5750 nM on human cathepsin F.

With `N#CC1(NC(=O)[C@@H]2CCCC[C@H]2c2nc(-c3ncc(F)cn3)sc2-c2ccc(N3CCS(=O)(=O)CC3)cc2)CC1` [Example 80, (1R,2R)-N-(1-cyanocyclopropyl)-2-(5-(4-(1,1-dioxidothiomorpho-lino)phenyl)-2-(5-fluoropyrimidin-2-yl)thiazol-4-yl)cyclohexane-carboxamide], the IC50 at human cathepsin K was 31.6 nM; at human cathepsin F, ≥ 10000 nM.

`COc1cnc(-c2nc([C@@H]3CCCC[C@H]3C(=O)NC3(C#N)CC3)c(-c3ccc(N4CCS(=O)(=O)CC4)cc3)s2)nc1` [Example 81, (1R,2R)-N-(1-cyanocyclopropyl)-2-(5-(4-(1,1-dioxidothiomorpho-lino)phenyl)-2-(5-methoxypyrimidin-2-yl)thiazol-4-yl)cyclohexane-carboxamide]: the IC50 at human cathepsin K is 48.4 nM; at human cathepsin F it was ≥ 10000 nM.

In the case of `Cc1cnc(-c2nc([C@@H]3CCCC[C@H]3C(=O)NC3(C#N)CC3)c(-c3ccc(N4CCS(=O)(=O)CC4)cc3)s2)nc1` [Example 82, (1R,2R)-N-(1-cyanocyclopropyl)-2-(5-(4-(1,1-dioxidothiomorpho-lino)phenyl)-2-(5-methylpyrimidin-2-yl)thiazol-4-yl)cyclohexane-carboxamide], the IC50 at human cathepsin K was 46.4 nM; at human cathepsin F it was ≥ 10000 nM.
